Data from patent US4552843A, “Process for producing an acidic polycyclic ether antibiotic by cultivation of a novel strain of Streptomyces endus subspecies aureus” (Pfizer Inc., priority 1984, dated 1985).

Legend:
[1] = tested on: Eimeria acervulina; assay: efficacy against coccidial infections in chickens (Table II); format: in vivo; conditions: for Ratio: lesion score treated / infected control; for % Weight Gain / Average Degree of Infection: chicks; for Average Degree of Infection: lesion score 0 to 3, five days
Method: (§1) Efficacy data for Antibiotic CP-63,517 and its salts against coccidial infections in chickens was obtained in the following fashion. Groups of 3-5 ten-day old SPF white leghorn cockerel chicks were fed a mash diet containing Antibiotic CP-63,517, its sodium and/or potassium salt, or the known agents Monensin or Stenorol uniformly dispersed therein. After being on this ration for 24 hours each chick was inoculated per os with oocysts of the particular species of Eimeria being tested. Other groups of 3-5 ten-day old chicks were fed a similar mash diet free of any test compound. They were also infected after 24 hours and served as infected controls. Yet another group of 3-5 ten-day old chicks were fed the mash diet free of any test compound and were not infected with coccidia. These served as normal controls. The results of treatment were evaluated after five days in the case of E. acervulina, and six days for other challenges.
(§2) ^1 The criteria used to measure anticoccidial activity consisted of
(§3) lesion scores of 0 to 4 for Eimeria tenella after J. E. Lynch, "A New
(§4) Method for the Primary Evaluation of Anticoccidial Activity", Am. J. Vet.
(§5) modification of the scoring system devised by J. Johnson and W. H. Reid,
(§6) "Anticoccidial Drugs. Lesion Scoring Techniques in Battery and Floor Pen
(§7) Experiments in Chicks", Exp. Parasit. 28: 30-36 (1970). A constant ratio
(§8) was established by dividing the lesion score of each treated group by the
(§9) lesion score of the infected control.

[2] = tested on: Eimeria tenella; assay: as above; format: in vivo; conditions: for Ratio: lesion score treated / infected control; for % Weight Gain / Average Degree of Infection: chicks; for Average Degree of Infection: lesion score 0 to 4, six days
Method: as §1, §2, §3, §4, §5, §6, §7, §8, §9

[3] = tested on: coccidial infections; assay: activity against coccidial infections in poultry; conditions: in vivo
Method: as §1

[4] = 10 ppm in diet, replicate (in parentheses)
[5] = 20 ppm in diet, replicate (in parentheses)
[6] = 30 ppm in diet, replicate (in parentheses)
[7] = 40 ppm in diet, replicate (in parentheses)
[8] = diet of chickens at levels of 5 to 40 ppm

COC1CCC(OC2CC3(CC(O)C(C)C(C(C)C=C(C)C(=O)C(C)CC(C)C(=O)O)O3)OC2(C)C2CCC(C)C3(OC(C4OC(O)(CO)C(C)CC4C)CC3C)O2)OC1C (stereo not drawn) [CP-63,517]
Ratio ([1]; 5 ppm in diet): 1.10 | Ratio ([1]; 10 ppm in diet): 0.50 | Ratio [1, 4]: 0.30 | Ratio ([1]; 20 ppm in diet): 0.40 | Ratio [1, 5]: 0.20 | Ratio ([1]; 30 ppm in diet): 0.20 | Ratio [1, 6]: 0.30 | Ratio ([1]; 40 ppm in diet): 0.60 | Ratio [1, 7]: 0.60 | % Weight Gain ([1]; 5 ppm in diet): 11% | Average Degree of Infection ([1]; 5 ppm in diet): 2.2 | % Weight Gain ([1]; 10 ppm in diet): 40% | Average Degree of Infection ([1]; 10 ppm in diet): 1.0 | Average Degree of Infection [1, 4]: 0.6 | % Weight Gain [1, 4]: 0% | % Weight Gain ([1]; 20 ppm in diet): 30% | Average Degree of Infection ([1]; 20 ppm in diet): 0.8 | Average Degree of Infection [1, 5]: 0.4 | % Weight Gain [1, 5]: 60% | % Weight Gain ([1]; 30 ppm in diet): 0% | Average Degree of Infection ([1]; 30 ppm in diet): 0.4 | Average Degree of Infection [1, 6]: 0.6 | % Weight Gain [1, 6]: 0% | % Weight Gain ([1]; 40 ppm in diet): 0% | Average Degree of Infection ([1]; 40 ppm in diet): 1.2 | Average Degree of Infection [1, 7]: 1.2 | % Weight Gain [1, 7]: 0% | control of infections due to E. acervulina [1, 8]: effective in controlling infections | Ratio ([2]; 5 ppm in diet): 0.3 | Ratio ([2]; 10 ppm in diet): 0.0 | Ratio [2, 4]: 0.3 | Ratio ([2]; 20 ppm in diet): 0.0 | Ratio [2, 5]: 0.0 | Ratio ([2]; 30 ppm in diet): 0.0 | Ratio [2, 6]: 0.0 | Ratio ([2]; 40 ppm in diet): 0.0 | Ratio [2, 7]: 0.0 | % Weight Gain ([2]; 5 ppm in diet): 63% | Average Degree of Infection ([2]; 5 ppm in diet): 1.0 | % Weight Gain ([2]; 10 ppm in diet): 36% | Average Degree of Infection ([2]; 10 ppm in diet): 0.0 | Average Degree of Infection [2, 4]: 1.0 | % Weight Gain [2, 4]: 66% | % Weight Gain ([2]; 20 ppm in diet): 14% | Average Degree of Infection ([2]; 20 ppm in diet): 0.0 | Average Degree of Infection [2, 5]: 0.0 | % Weight Gain [2, 5]: 26% | % Weight Gain ([2]; 30 ppm in diet): 0% | Average Degree of Infection ([2]; 30 ppm in diet): 0.0 | Average Degree of Infection [2, 6]: 0.0 | % Weight Gain [2, 6]: 23% | % Weight Gain ([2]; 40 ppm in diet): 0% | Average Degree of Infection ([2]; 40 ppm in diet): 0.0 | Average Degree of Infection [2, 7]: 0.0 | % Weight Gain [2, 7]: 2% | control of infections due to Eimeria tenella [2, 8]: effective in controlling infections | activity against coccidial infections in poultry [3]: excellent activity
